What was measured:
[1] = system: C4 (7α-hydroxy-4-cholesten-3-one); assay: Plasma C4 level after OCA and its association with microbiome species (GEE); format: in vivo, human
Experimental: C4 level was measured on 5 mg and 10 mg OCA dose groups. The day 1 pre-dose C4 was used as a match of day 1 microbiome measurement. The average level of C4 from day 4 to day 17 pre-dose was calculated as a match of day 15 or 16 microbiome measurement. The average C4 level on day 30 and day 44 was used as a match of microbiome on day 37. The average of multiple time points was taken to match the three time points of microbiome measurements.
Geeglm(fgf19·log 2˜hour+dose+hour:dose, id=sID, corstr=“exchangeable”) • C4 analysis: The GEE model was applied in association study of C4 and microbiome species. Both C4 and species relative abundance were log 2 transformed before applying GEE model.
Geeglm(species·log 2˜C4·log 2, id=sID, corstr=“exchangeable”)
Twenty-four healthy subjects were randomly assigned to one of three dose groups (5 mg, 10 mg, or 25 mg OCA per day), with each dose group comprising eight subjects (four women and four men). A single oral OCA dose of 5 mg, 10 mg, or 25 mg tablets, depending on the treatment assignment, was administered on Day 1. In the multiple-dose phase, a single oral OCA dose of 5 mg, 10 mg, or 25 mg tablets, in accordance with the assigned treatment, was administered orally once daily for 14 days from Days 4-17. The patients remained at the study site until Day 30, and were followed up until the final visit on Day 44 (FIG. 62A). Fecal specimens were collected at baseline (Day 0), at the end of the multiple-dose phase (Day 17), and at the end of the study (Day 37). Pharmacokinetic blood samples were assessed pre-dose and on Days 1-3, 17, 35, 37, 39, and 44. […] Therefore, plasma C4 levels are a reliable dynamic indicator of the host response to FXR activation by OCA, that leads to the suppression of endogenous bile acid synthesis (Hirschfield et al., Gastroenterology 148, 751-761 e758 (2015); Mudaliar et al., Gastroenterology 145, 574-582 e571 (2013)).

[2] = system: bacterial strains found in the human small intestine; assay: Inhibition of bacterial growth by bile acids, microbroth dilution, optical density at 630 nm; format: cell-based
Experimental: The toxicity of several bile acids to various gut microbiome species was examined. Representative species were exposed to different bile acids at a range of concentrations under either aerobic or anaerobic condition, and the growth of the species at these concentrations was measured by determining the optical density of the culture.
Lactobacillus casei CP was purchased from Custom Probiotics Inc. (Glendale, Calif.) as L. casei Custom Probiotic Powder (strain confirmed by Sanger sequencing of the 16S gene). Pediococcus pentosaceus KE-99 was purchased from Probiohealth (Beverly Hills, Calif.) as KE-99 LACTO Tablet (strain confirmed by Sanger sequencing of the 16S gene). L. casei 393, Streptoccocus thermophilus LMD-9, Akkermansia muciniphila Muc, and Veillonella parvula Te3 were purchased from the American Type Culture Collection (ATCC, Manassas, Va.). Lactococcus lactis NZ9000 was purchased from BOCA Scientific (Boca Raton, Fla.). Escherichia coli Nissle was obtained from Dr. Mark Goulian (University of Pennsylvania, Philadelphia, Pa.).
L. casei, P. pentasaceus, and L. lactis were grown in de Man, Rogosa, and Sharpe (MRS) medium (Anaerobe Systems, Morgan Hill, Calif.); E. coli was grown in lysogeny broth (LB) medium (Fisher Scientific, USA); S. thermophilus and A. muciniphila were grown in brain heart infusion (BHI) medium (Fisher Scientific, USA and Anaerobe Systems, Morgan Hill, Calif.), and; V. parvula was grown in reinforced clostridial medium (Fisher Scientific, USA). Aerobic cultures were incubated at 37° C.; anaerobic cultures were incubated at 37° C. in an anaerobic glove box (Coy Laboratories, Grass Lake, Mich.).
Glycochenodeoxycholic, glycocholic, and taurocholic acids were purchased from Sigma Aldrich (St. Louis, Mo.). Obeticholic acid was provided by Intercept Pharmaceuticals, Inc. (New York, N.Y.).
Inhibition of bacterial growth by bile acids was determined by the microbroth dilution method. Plates were prepared with 100 uL of medium containing the appropriate concentrations of bile acid. Wells were inoculated with 1 uL of an overnight culture, covered, and incubated overnight (3 days for A. muciniphila and V. parvula, which are slow growing organisms). Growth was measured via optical density at 630 nm, and measurements were zeroed against wells containing the appropriate bile acid level with no bacteria. All tests were performed in triplicate. Data is expressed as the percent (%) reduction in growth, which was calculated against controls (i.e., no bile acids). The responses of representative species to different concentrations of bile acids are illustrated by the heat maps shown in FIGS. 53A-53D.

[3] = target: T1, farnesoid X receptor (FXR) (Homo sapiens, UniProt Q96RI1); conditions: cited from earlier work
T1 sequence (Q96RI1 1-486): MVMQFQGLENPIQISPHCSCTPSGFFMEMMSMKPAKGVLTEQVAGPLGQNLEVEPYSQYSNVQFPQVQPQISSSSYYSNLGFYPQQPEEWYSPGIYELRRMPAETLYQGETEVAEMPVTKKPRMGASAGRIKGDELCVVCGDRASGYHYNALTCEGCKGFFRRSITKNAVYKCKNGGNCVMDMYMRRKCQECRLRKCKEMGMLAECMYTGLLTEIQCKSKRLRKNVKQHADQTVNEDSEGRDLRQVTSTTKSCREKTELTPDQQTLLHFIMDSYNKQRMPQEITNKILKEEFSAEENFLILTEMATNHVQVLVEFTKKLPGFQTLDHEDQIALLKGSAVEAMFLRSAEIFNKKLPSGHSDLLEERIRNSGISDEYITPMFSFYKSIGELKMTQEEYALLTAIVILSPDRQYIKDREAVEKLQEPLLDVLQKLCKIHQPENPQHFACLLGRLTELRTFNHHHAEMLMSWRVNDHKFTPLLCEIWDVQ

## CC[C@H]1[C@@H](O)[C@@H]2[C@H](CC[C@]3(C)[C@@H]([C@H](C)CCC(=O)O)CC[C@@H]23)[C@@]2(C)CC[C@@H](O)C[C@@H]12 [OCA, 3α,7α-dihydroxy-6α-ethyl-5β-cholan-24-oic acid]
[1]; Day 16
  plasma levels of C4 relative to Day 0 (pre-OCA dose): maximally suppressed
[1]; Day 37
  plasma levels of C4 at maximal time off OCA: returned to normal
[1]; serial quantification, repeated measure ANOVA
  plasma C4 in response to OCA treatment: time-dependent reduction
[2]; approximately 12 micromolar, aerobically or anaerobically
  effect on growth at calculated physiologic levels of the human small intestine: no effect on any strain tested
[2]; high concentrations of OCA
  effect on growth at high concentrations: growth inhibitory effect on several strains
[3]
  potency as FXR agonist relative to the endogenous FXR agonist CDCA: 100 fold

Source: US20200164005A1, “PHARMACEUTICAL COMPOSITIONS OF A BILE ACID DERIVATIVE AND MICROBIOME AND USES THEREOF” (Intercept Pharmaceuticals, Inc., priority 2017, published 2020)
